Source: patent US20050260568A1, “Hepatitis C virus assays” (priority 2004, published 2005)

Experiments:
HCV replicon = HCV replicon FRET assay (NS3 protease activity as indirect measure of HCV RNA replication); type: cell-based, Hepatitis C virus; conditions: FIG. 7A IFN-α control titration 1000 to 1 units
Text: To perform the HCV FRET screening assay, 96-well cell culture plates were used. The FRET peptide (Anaspec, Inc.) (Taliani et al., Anal. Biochem. 240:60-67 (1996), expressly incorporated by reference in its entirety) contains a fluorescence donor, EDANS, near one end of the peptide and an acceptor, DABCYL, near the other end. The fluorescence of the peptide is quenched by intramolecular resonance energy transfer (RET) between the donor and the acceptor, but as the NS3 protease cleaves the peptide the products are released from RET quenching and the fluorescence of the donor becomes apparent. […]
Subsequent to addition of the test compounds described above (FRET Assay Preparation), at various times the plate was removed and Alamar Blue solution (Trek Diagnostics, #00-100) was added per well as a measure of cellular toxicity. After reading in a Cytoflour 4000 instrument (PE Biosystems), plates were rinsed with PBS and then used for FRET assay by the addition of 30 ul of the FRET peptide assay reagent described above (FRET Assay Preparation) per well. The plate was then placed into the Cytoflour 4000 instrument which had been set to 340 excite/490 emission, automatic mode for 20 cycles and the plate read in a kinetic mode. Typically, the signal to noise using an endpoint analysis after the reads was at least three-fold. […]

Huh-7 replicon cells = assay: Alamar Blue cytotoxicity assay; type: cell-based; conditions: lower concentrations of IFN-α (100, 10, 1 units)
Experimental: Subsequent to addition of the test compounds described above (FRET Assay Preparation), at various times the plate was removed and Alamar Blue solution (Trek Diagnostics, #00-100) was added per well as a measure of cellular toxicity. After reading in a Cytoflour 4000 instrument (PE Biosystems), plates were rinsed with PBS and then used for FRET assay by the addition of 30 ul of the FRET peptide assay reagent described above (FRET Assay Preparation) per well. The plate was then placed into the Cytoflour 4000 instrument which had been set to 340 excite/490 emission, automatic mode for 20 cycles and the plate read in a kinetic mode. Typically, the signal to noise using an endpoint analysis after the reads was at least three-fold.
Compound analysis was determined by quantification of the relative HCV replicon inhibition and the relative cytotoxicity values. To calculate cytotoxicity values, the average Alamar Blue fluorescence signals from the control wells in row 11 (FIG. 4) were set as 100% non-toxic. The individual signals in each of the compound test wells were then divided by the average control signal and multiplied by 100% to determine […]. To calculate the HCV replicon inhibition values, an average background value FRET signal was obtained from the two wells containing the highest amount of interferon at the end of the assay period. […]

Interferon alpha [IFN-α]
EC50 in control samples of random compound plate (FRET) (HCV replicon): close to or slightly lower than the lowest concentration of IFN-α used | cytotoxicity (Alamar Blue staining change) (Huh-7 replicon cells): no apparent Alamar Blue staining change
